Laboratory results as given in patent US9532956B2, “PH sensitive biodegradable polymeric particles for drug delivery” (Massachusetts Institute of Technology, priority 2009, dated 2017).

Test system: Red blood cells (RBCs)
Conditions: pH 7.4
Experimental: The red blood cells (RBCs) were separated from the whole blood or anticoagulant solution by centrifuging the whole blood at 800 rcf for 15 min. The supernatant was discarded and the RBCs were washed thrice with phosphate buffered saline (PBS). The stock of RBCs was prepared by mixing three volumes of the centrifuged RBCs with 11 parts of the phosphate buffered saline (PBS) with pH adjusted to 7.4, 6.5, or 5.4, and 100 μL of this stock was used for 1 ml of the sample. RBCs were mixed with Triton X-100 (1%, w/v) (positive control); with phosphate buffered saline (PBS) with pH adjusted to 7.4, 6.5, or 5.4 (negative control); and respective concentrations of amines, PLH and protamine at different pH (7.4, 6.5, or 5.4). Samples were incubated at 37° C. for 24 h on a tube shaker. The samples were centrifuged at 800 rcf for 15 min to separate intact RBCs. The supernatant was collected and kept for 30 min at room temperature to oxidize hemoglobin (Hb) and then the absorbance of Oxy-Hb was measured spectrophotometrically at 540 nm. The relative hemolysis efficiency was calculated as the percentage of released hemoglobin by the samples to that by Triton X-100. The percent hemolysis was calculated using the equation of a straight line, y=mx+c, where % hemolysis (x)=[optical density (y)−negative control optical density (c)]/[(positive control optical density−negative control optical density)/100] […]

Molecule: N[C@@H](Cc1c[nH]cn1)C(=O)N[C@@H](Cc1c[nH]cn1)C(=O)N[C@@H](Cc1c[nH]cn1)C(=O)N[C@@H](Cc1c[nH]cn1)C(=O)N[C@@H](Cc1c[nH]cn1)C(=O)N[C@@H](Cc1c[nH]cn1)C(=O)O [PLH, poly-L-histidine (PLH, 6-mer)]
- % hemolysis versus pH: maximum hemolytic properties at endosomal pH 5.4

Molecule: protamine
- % hemolysis versus pH: more hemolytic properties at physiological pH 7.4
